Article PMC7349657, “Efficient Targeted Degradation via Reversible and Irreversible Covalent PROTACs” (Journal of the American Chemical Society, 2020)

What was measured:
Format in all cases: cell-based
BTK [1] = target: T1, BTK (Homo sapiens, UniProt Q06187); assay: Time course of BTK degradation in Ramos and Mino cells; parameters: endogenous in cells; host or cells: Mino (ATCC CRL-3000), Ramos (ATCC CRL-1596), K562 (NCI-60); conditions: 100 nM PROTAC, Ramos cells (RC-3: Mino cells)
Experimental: We followed the rate of BTK degradation facilitated by this compound series via a time course experiment in Ramos and Mino cells (Supporting Figure 3). The rates of degradation correlated well with the DC50 values observed after 24 h, with NC-1, IR-1, IR-2, and RC-3 degrading BTK within 2–4 h, while RC-2 and RC-1 required 6–24 h to reach maximum degradation.
Ramos (ATCC, CRL-1596), Mino (ATCC, CRL-3000), or K562 (NCI-60) cell lines were counted and diluted to 10^6 cell/mL, using 1 mL per well in a 24-well plate, and U2OS (ATCC HTB-96) cells overexpressing human BTK WT or C481S mutant were grown using 2 mL in a six-well plate (see Supporting Information). Cells were incubated with 1% DMSO or compound in indicated concentrations for 24 h unless indicated differently, or cells were left untreated. Lysates were prepared as previously described,[29] and samples were measured for total protein quantification by bicinchoninic acid (BCA) assay (#23225 ThermoFisher Scientific) supplemented with 4× loading buffer including 20 mM DTT, heated to 70 °C for 10 min, loaded into 4% SDS-PAGE gel, run for 45 min at 140 mV, then transferred into a nitrocellulose membrane (Biorad) using a Trans-Blot Turbo transfer system (Biorad). The membrane was stained with Ponceau (Sigma) to validate transfer for 10 min in gentle agitation then destained for 1 h with MQ water. The membrane was blocked with Licor blocking buffer (LIC927-70001) for 1 h, washed three times for 5 min with TBS-T, incubated with primary antibody BTK (D3H5) rabbit mAb (CST; 8547 S) overnight (16 h) at 4 °C, washed three times for 5 min with TBS-T, and incubated with primary antibody against β-actin (CST; 3700) for 1 h at 25 °C. Membrane was washed three times for 5 min with TBS-T, incubated with fluorescent secondary antibodies anti-mouse IgG Alexa Fluor 647 (CST: 4410S) and anti-rabbit-IgG IRDye 800(LICOR: 926-32211) for 1 h, then washed three times for 5 min with TBS-T, dried, and immediately imaged and analyzed using Licor Odyssey CLx. Prism (GraphPad) software was used to calculate degradation levels. We used second-order polynomial fits to estimate DC50 and Dmax values.
Supplementary Figure 3: BTK degradation time dependency.
Ramos (PI3I, RC-1, I R-1, R C-2, I R-2, NC-1) or Mino ( RC-3) cells were treated with 100 nM of PROTAC or DMSO for indicated times, subsequently harvested for BTK levels measurement via western blot.
(1 picture or pasted object on this page, not shown here)

BTK [2] = target: T1, BTK; assay: BTK degradation in patient-derived primary CLL cells (Western blot); parameters: endogenous in cells; conditions: 18 h
Experimental: To assess the PROTACs’ efficiency in a clinically relevant model, we tested their ability to induce BTK degradation in primary cells from chronic lymphocytic leukemia (CLL) patients.
Figure 4 Degradation of BTK in patient-derived CLL cells. Patient-derived primary CLL cells were treated with BTK PROTACs for 18 h, followed by measuring BTK levels via Western blot. M-IGHV/UM-IGHV: mutated/unmutated immunoglobulin heavy chain variable region (IGHV) gene.
The LC–MS/MS instrument consi sted of an Acquit y I-class UPLC system (Waters) and Xevo TQ-XS triple quadrupole mass spectrometer (Waters) equipped with an electrospray ion source. Chromatographic separation was done on UPLC BEH C18 column (50mm × 2.1mm, 1.7-µm, Waters) using 50-100% gradient of 95%-aqueous acetonitrile with 0.1% formic acid in aqueous 0.1% formic acid during 2.5 minut e s, with a flow rate of 0. 3 mL min−1 and column temperature 30°C. Samples kept at 10°C were automatically injected in a volume of 3µl.
MS parameters (positive ion mode): capillary voltage - 2. 0kV, source temperature - […]
Targeting BTK in CLL cells […]
Following incubation with PROTACs as detailed, cells were collected and lysed in cell lysis buffer (Cell Signaling Technology, Beverly, MA) containing Phosphatase Inhibitor Cocktail 2 and protease inhibitor Cocktail (Sigma-Aldrich, St. Louis, MO). […] Bands were detected using MyECL Imager (Thermo Scientific, […]

BTK [3] = target: T1, BTK; assay: Mechanism validation: pretreatment with ibrutinib, thalidomide-OH or bortezomib before PROTAC in Mino cells; parameters: endogenous in cells; host or cells: Mino (ATCC CRL-3000), Ramos (ATCC CRL-1596), K562 (NCI-60); conditions: 2 h pretreatment, then PROTAC 24 h

T1 sequence (Q06187 whole entry): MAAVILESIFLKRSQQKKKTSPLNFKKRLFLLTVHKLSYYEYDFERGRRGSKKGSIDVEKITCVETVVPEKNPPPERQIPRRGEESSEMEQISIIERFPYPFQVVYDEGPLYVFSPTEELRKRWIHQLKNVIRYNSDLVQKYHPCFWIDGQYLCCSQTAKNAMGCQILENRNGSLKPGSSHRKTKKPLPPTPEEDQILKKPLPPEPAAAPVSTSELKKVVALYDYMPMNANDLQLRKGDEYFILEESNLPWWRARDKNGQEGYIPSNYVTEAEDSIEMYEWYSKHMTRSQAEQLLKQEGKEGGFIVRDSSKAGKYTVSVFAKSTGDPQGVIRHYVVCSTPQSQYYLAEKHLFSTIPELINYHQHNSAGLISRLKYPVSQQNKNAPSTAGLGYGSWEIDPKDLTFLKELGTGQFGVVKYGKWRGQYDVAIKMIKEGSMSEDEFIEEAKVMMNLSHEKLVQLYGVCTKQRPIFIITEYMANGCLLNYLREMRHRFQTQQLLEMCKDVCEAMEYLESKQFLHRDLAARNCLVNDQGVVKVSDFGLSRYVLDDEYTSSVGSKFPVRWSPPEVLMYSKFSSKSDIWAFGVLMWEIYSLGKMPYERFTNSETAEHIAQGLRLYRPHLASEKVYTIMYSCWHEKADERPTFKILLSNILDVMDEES

Row | SMILES | time to degrade BTK / reach maximum degradation (BTK [1]) | BTK degradation level (BTK [2]) | BTK degradation after thalidomide-OH pretreatment (BTK [3])
1 | Nc1ncnc2c1c(-c1ccc(Oc3ccccc3)cc1)nn2C1CCCN(C(=O)C=CCCCCOCCOCCOCCOCCOc2cccc3c2C(=O)N(C2CCC(=O)NC2=O)C3=O)C1 (centres unmarked) [IR-2] | 2 to 4 h | higher degradation levels than RC-2 and RC-3 | 
2 | CC(C)(C=C(C#N)C(=O)N1CCCC(n2nc(-c3ccc(Oc4ccccc4)cc3)c3c(N)ncnc32)C1)CCCOCCOCCOCCOCCOc1cccc2c1C(=O)N(C1CCC(=O)NC1=O)C2=O (centres unmarked) [RC-3] | 2 to 4 h |  | 
3 | N#CC(=CCCCCOCCOCCOCCOCCOc1cccc2c1C(=O)N(C1CCC(=O)NC1=O)C2=O)C(=O)N1CCCC(n2nc(-c3ccc(Oc4ccccc4)cc3)c3c(N)ncnc32)C1 (centres unmarked) [RC-2] | 6 to 24 h |  | 
4 | Nc1ncnc2c1c(-c1ccc(Oc3ccccc3)cc1)nn2C1CCCN(C(=O)CCCCCCOCCOCCOCCOCCOc2cccc3c2C(=O)N(C2CCC(=O)NC2=O)C3=O)C1 (centres unmarked) [NC-1] | 2 to 4 h | higher degradation levels than RC-2 and RC-3 | only slightly hindered by thalidomide
5 | Nc1ncnc2c1c(-c1ccc(Oc3ccccc3)cc1)nn2C1CCCN(C(=O)C=CCOCCOCCOCCOCCOCCOc2cccc3c2C(=O)N(C2CCC(=O)NC2=O)C3=O)C1 (centres unmarked) [IR-1] | 2 to 4 h |  | 
